{
  "source": "patent US12551436B2",
  "about": "“Dosing regimens for treatment of proliferative disorders” (priority 2018, dated 2026)",
  "test": "Pharmacokinetics of curcumin and THC in plasma during and after liposomal curcumin infusion",
  "type": "in vivo, human",
  "details": "for AUC(0-t): read-out: AUC0-Tlast",
  "procedure": "Patient #21 was excluded from the PK analysis because the infusion was interrupted for 1.5 h.\nPharmacokinetic assessments. […] Samples for infusion #1 were collected at baseline (BL), 2 h after start of infusion and after end of infusion at 0 min=EOI, 10 min, 20 min, 30 min, 45 min, 60 min and 120 min and at EOI for infusions #2, #3, #5 and #8. […] The number of blood collections remained unchanged.",
  "key": {"[1]": {"details": "plasma THC, first liposomal curcumin infusion, DL 3: 150 mg/m^2, 8 h infusion, patient 17"}, "[2]": {"details": "plasma THC, first liposomal curcumin infusion, DL 4: 190 mg/m^2, 8 h infusion, Mean, patient #19 not included"}, "[3]": {"details": "plasma THC, first liposomal curcumin infusion, DL 4: 190 mg/m^2, 8 h infusion, individual patients"}, "[4]": {"details": "plasma THC, first liposomal curcumin infusion, DL 6: 300 mg/m^2, 8 h infusion, Mean"}, "[5]": {"details": "plasma THC, first liposomal curcumin infusion, DL 6a: 300 mg/m^2, 6 h infusion, Mean"}, "[6]": {"details": "plasma THC, first liposomal curcumin infusion, DL 6a: 300 mg/m^2, 6 h infusion, individual patients"}},
  "note": "Several values for one entry are separate records, joined by “and”; a condition that tells them apart may be missing. Equal entries are not always repeated. Where two headings read alike, the source gives them in different places.",
  "data": [
    {"smiles": "COc1cc(/C=C/C(=O)CC(=O)/C=C/c2ccc(O)c(OC)c2)ccc1O", "note": "[Curcumin, (1E6E)-1,7-bis(4 hydroxy-3-methoxyphenyl)-1,6-heptadiene-3,5 dione]", "values": [
      {"measurement": "Cmax", "setting": "human, in vivo, 240 mg/m^2, plasma curcumin, first liposomal curcumin infusion, DL 5: 240 mg/m^2 8 h infusion, Mean, read-out: Cmax", "value": 647, "unit": "ng/mL"},
      {"measurement": "Tmax", "setting": "human, in vivo, mean Tmax for curcumin", "value": "3.6 to 4", "unit": "h"}
    ]},
    {"smiles": "COc1cc(CCC(=O)CC(=O)CCc2ccc(O)c(OC)c2)ccc1O", "note": "[tetrahydrocurcumin]", "values": [
      {"measurement": "plasma samples", "setting": "DL 1-DL 3 (100 to 150 mg/m^2), patients with only one blood collection during infusion, most samples", "value": "below the limit of quantification"},
      {"measurement": "AUC(0-t)", "setting": "human, in vivo, 150 mg/m^2, plasma THC, first liposomal curcumin infusion, DL 3: 150 mg/m^2, 8 h infusion, patient 17", "value": 59, "unit": "ng·h/mL"},
      {"measurement": "Cmax", "setting": "human, in vivo, 150 mg/m^2, plasma THC, first liposomal curcumin infusion, DL 3: 150 mg/m^2, 8 h infusion, patient 17, read-out: Cmax", "value": 16.1, "unit": "ng/mL"},
      {"measurement": "Tmax", "setting": "human, in vivo, 150 mg/m^2, plasma THC, first liposomal curcumin infusion, DL 3: 150 mg/m^2, 8 h infusion, patient 17, read-out: Tmax", "value": 4, "unit": "h"},
      {"measurement": "AUC(0-t)", "setting": "human, in vivo, 190 mg/m^2, plasma THC, first liposomal curcumin infusion, DL 4: 190 mg/m^2, 8 h infusion, Mean, patient #19 not included", "value": 27, "unit": "ng·h/mL"},
      {"measurement": "Cmax", "setting": "human, in vivo, 190 mg/m^2, plasma THC, first liposomal curcumin infusion, DL 4: 190 mg/m^2, 8 h infusion, Mean, patient #19 not included, read-out: Cmax", "value": 7.2, "unit": "ng/mL"},
      {"measurement": "Tmax", "setting": "human, in vivo, 190 mg/m^2, plasma THC, first liposomal curcumin infusion, DL 4: 190 mg/m^2, 8 h infusion, Mean, patient #19 not included, read-out: Tmax", "value": 5, "unit": "h"},
      {"measurement": "AUC(0-t)", "setting": "human, in vivo, 300 mg/m^2, plasma THC, first liposomal curcumin infusion, DL 6: 300 mg/m^2, 8 h infusion, Mean", "value": 344, "unit": "ng·h/mL"},
      {"measurement": "Cmax", "setting": "human, in vivo, 300 mg/m^2, plasma THC, first liposomal curcumin infusion, DL 6: 300 mg/m^2, 8 h infusion, Mean, read-out: Cmax", "value": 74.4, "unit": "ng/mL"},
      {"measurement": "Tmax", "setting": "human, in vivo, 300 mg/m^2, plasma THC, first liposomal curcumin infusion, DL 6: 300 mg/m^2, 8 h infusion, Mean, read-out: Tmax", "value": 2.5, "unit": "h"},
      {"measurement": "AUC(0-t)", "setting": "human, in vivo, 300 mg/m^2, plasma THC, first liposomal curcumin infusion, DL 6a: 300 mg/m^2, 6 h infusion, Mean", "value": 326, "unit": "ng·h/mL"},
      {"measurement": "Cmax", "setting": "human, in vivo, 300 mg/m^2, plasma THC, first liposomal curcumin infusion, DL 6a: 300 mg/m^2, 6 h infusion, Mean, read-out: Cmax", "value": 70.3, "unit": "ng/mL"},
      {"measurement": "Tmax", "setting": "human, in vivo, 300 mg/m^2, plasma THC, first liposomal curcumin infusion, DL 6a: 300 mg/m^2, 6 h infusion, Mean, read-out: Tmax", "value": 3.7, "unit": "h"},
      {"measurement": "AUC0-TLast of THC as percentage of curcumin", "setting": "mean across individual patients", "value": 8.5, "unit": "%"},
      {"measurement": "Clast", "setting": "[1]", "value": 10.3, "unit": "ng/mL"},
      {"measurement": "Tlast", "setting": "[1]", "value": 6.0, "unit": "h"},
      {"measurement": "Clast", "setting": "[2]", "value": 7.2, "unit": "ng/mL"},
      {"measurement": "Tlast", "setting": "[2]", "value": 5.0, "unit": "h"},
      {"measurement": "AUC0-Tlast", "setting": "[3]", "value": "22 ng·h/mL and 1656 ng·h/mL and 31 ng·h/mL"},
      {"measurement": "Clast", "setting": "[3]", "value": "7.7 ng/mL and 11.8 ng/mL and 6.6 ng/mL"},
      {"measurement": "Cmax", "setting": "[3]", "value": "7.7 ng/mL and 396.1 ng/mL and 6.6 ng/mL"},
      {"measurement": "Tlast", "setting": "[3]", "value": "4.0 h and 8.8 h and 6.0 h"},
      {"measurement": "Tmax", "setting": "[3]", "value": "8.1 h and 6.0 h"},
      {"measurement": "Clast", "setting": "[4]", "value": 21.8, "unit": "ng/mL"},
      {"measurement": "Tlast", "setting": "[4]", "value": 7.7, "unit": "h"},
      {"measurement": "Clast", "setting": "[5]", "value": 6.2, "unit": "ng/mL"},
      {"measurement": "Tlast", "setting": "[5]", "value": 6.6, "unit": "h"},
      {"measurement": "AUC0-Tlast", "setting": "[6]", "value": "497 ng·h/mL and 155 ng·h/mL and 385 ng·h/mL and 332 ng·h/mL and 321 ng·h/mL and 264 ng·h/mL"},
      {"measurement": "Clast", "setting": "[6]", "value": "6.9 ng/mL and 5.2 ng/mL (2×) and 6.0 ng/mL and 8.4 ng/mL and 5.7 ng/mL"},
      {"measurement": "Cmax", "setting": "[6]", "value": "110.4 ng/mL and 35.1 ng/mL and 80.1 ng/mL and 67.6 ng/mL and 70.7 ng/mL and 58.3 ng/mL"},
      {"measurement": "Tlast", "setting": "[6]", "value": "6.8 h (2×) and 7.3 h and 6.0 h and 6.6 h and 6.2 h"},
      {"measurement": "Tmax", "setting": "[6]", "value": "2.0 h and 5.9 h and 5.8 h"},
      {"measurement": "AUC0-TLast of THC as percentage of curcumin", "setting": "range across individual patients", "value": "2.1%-21.8%"}
    ]}
  ]
}
